These results are taken from PMC9612231, “Antileishmanial Anthracene Endoperoxides: Efficacy In Vitro, Mechanisms and Structure-Activity Relationships” (Molecules, 2022).

For assay [1], the system named is Leishmania tarentolae promastigotes (LtP). In words: Resazurin viability assay for LtP. Conditions: Leishmania tarentolae, 48 h, read-out: LtP IC50. The assay is classed as cell-based. The procedure: (§1) The influence of AcEP and their analogs (Ac) on the viability of cells was tested in Leishmania tarentolae promastigotes (LtP) and J774 macrophages (Table 2). Based on the changes of viability of the respective cell lines at different compound concentrations, IC50 values were calculated. In Table 2, the IC50 values in both cell lines were compared for the individual compounds. From the ratio of IC50 values in J774 macrophages to IC50 values in LtP, an in vitro selectivity was calculated.
LtP (strain P10 from Jena Bioscience, Jena, Germany) were cultivated according to manufacturer instructions up to passage 50 in brain heart infusion medium (37 g/L, pH 7.4) and supplemented with 5 mg/L hemin and 25,000 IU/L penicillin and 25 mg/L streptomycin in 50 mL TubeSpin bioreactors (TPP, Trasadingen. Switzerland). LtP were grown at 27 °C in an incubator (Ehret, Emmendingen, Germany) and agitated at a frequency of 0.05 s^−1. […] For experiments, LtP were used one day after passage. The cell number was calculated by measuring the optical density (OD) of the culture at 600 nm with a U-1100 photometer (Hitachi Ltd., Tokyo, Japan) and applying the formula × 10^6 cells/mL = OD600nm × 0.969 × 124 × dilution factor [53].
Assay medium of YEM (20.7 g/L yeast extract powder, 1.2 g/L K2HPO4, 0.2 g/L KH2PO4, 2.9 g/L glucose, pH 7.4) and PBS (1:1, v/v), 25,000 U/L penicillin, 25 mg/L streptomycin, and 7.7 µM hemin was prepared. Aliquots of 200 µL of this medium and 2 × 10^6 LtP/mL (where required) were distributed in non-treated cell culture 96-well plates. Compounds (dissolved in DMSO) were added with starting concentrations of 25 µM (Pen) or 200 µM (AcEP/Ac), and then, serial dilutions were carried out resulting in a set of concentrations (25, 5, 1, 0.2, 0.04, and 0.008 µM) or (200, 40, 8, 1.6, 0.32, and 0.064 µM). For each compound concentration, at least triplicates on each plate were performed. After incubation of the plates at 27 °C for 48 h, 50 µL of resazurin solution (final concentration in wells 20 µM) was added to each well and after 4 h of incubation, the fluorescence was measured at 560 nm excitation and 590 nm emission using a plate reader (Perkin Elmer EnSpire, Rodgau, Germany) (adapted from). Combination assays for viability in the presence of PIH and NAC were performed the same way. […] All tests were repeated at least on four different weeks of cultivation.
(§2) Calculations were carried out using Microsoft Excel 2016 (Microsoft). The graphs were created using Origin 6.1 (OriginLab Corporation, Northampton, MA, USA). For all groups of experimental data, mean and standard deviation (SD) were calculated. Statistically significant differences between groups of sample data were identified by unpaired two-tailed Student’s t-test. Differences on the level of p < 0.05 were considered significant. The number of replicates is indicated at the respective figures/tables. The half-maximal inhibitory concentrations (IC50) were determined from non-linear concentration-response curves using a four-parameter logistic model and expressed as the mean ± SD.

Assay [2] relates to LtP, axenic Leishmania tarentolae amastigotes and Leishmania donovani promastigotes. On the set-up: method as in PMID 29996524. The settings on record: read-out: IC50 in viability tests; cited from earlier work.
The subject of a further assay is J774 macrophages. As to the kind of experiment: Resazurin viability assay for J774 macrophages. The class given is cell-based, murine. Conditions: Mus musculus, J774, 48 h, read-out: J774 IC50, resazurin viability, endpoint 48 h, 10^5 J774 cells/mL, mean ± SD of 4–8 experiments. The procedure: as §1
The murine macrophage cell line J774A.1 (ATCC, TIB-67™, Wesel, Germany) was cultivated up to passage 30 in DMEM (high glucose, 3.7 g/L NaHCO3, pH 7.4) with 25,000 IU/L penicillin, 25 mg/L streptomycin, and 10% FCS (heat-inactivated) in 50 mL TubeSpin bioreactors. J774 cells were incubated at 37 °C and 5% CO2 on a roller culture apparatus (5 rpm) in a Heraeus Cytoperm 8080 incubator (Thermo Electron Corp., Vienna, Austria). To determine the cell count, the cell suspension was re-suspended and diluted 1:2 with phosphate-buffered saline (PBS): 137 mM NaCl, 1.4 mM KH2PO4, 4.3 mM Na2HPO4, and 2.7 mM KCl, pH 7.4. After fixation of the cells by mixing the cell suspension 1:1 with a formaldehyde solution (2%, v/v), aliquots of the resulting suspension were transferred into a standard Neubauer chamber (VWR, Austria) and counted manually using a light microscope (Motic BA310, Vienna, Austria) at a magnification of 40 times. J774 cells were passaged twice a week in a ratio of 1:10.
DMEM containing 25,000 U/L penicillin, 25 mg/L streptomycin, 10% FCS, and 1 × 10^5 J774/mL was prepared. This mixture (200 µL) was distributed in cell culture-treated 96-well plates, except the control wells which contained only DMEM. The cells were incubated for 24 h at 37 °C and 5% CO2 to allow attachment. Afterwards the medium and non-adherent cells were removed by washing with PBS, and then, 200 µL DMEM was added to attached cells. Compounds dissolved in DMSO were added in starting concentrations of 25 µM (Pen) or 200 µM (AcEP/Ac), and then, serial dilutions were carried out resulting in the same concentration steps as listed for LtP. For each compound concentration triplicates on each plate were performed. […], 50 µL of resazurin solution (final concentration 20 µM) was added, and after 4 h of incubation, the fluorescence was measured at 560 nm excitation and 590 nm emission using a plate reader (Perkin Elmer EnSpire, Rodgau, Germany). All tests were repeated at least on four different weeks of cultivation.
as §2
(In general: The colour change of resazurin is a common sign of viable cells or microbes.)

Another assay relates to LtP. In words: Superoxide radical formation in LtP by the EPR/CMH method. The class given is cell-based, Leishmania tarentolae. The settings on record: antimycin A 20 µM, 20 min at 25 °C. From the text:
Since mitochondrial inhibition can be triggered by secondary damage in the respective cells, for example, by superoxide radicals, we studied the formation of superoxide radicals in LtP by the EPR/hydroxyl-3-methoxycarbonyl-2,2,5,5-tetramethylpyrrolidine hydrochloride (CMH) method (Figure 10). […] In the presence of antimycin A (AA, an inhibitor of mitochondrial complex III), the superoxide radical formation in LtP is increased by more than 150% (Figure 11).
An aliquot of the LtP cell culture equivalent to 5 × 10^8 LtP was transferred into a 1.5 mL Eppendorf tube and was centrifuged (Hettich Universal 16, 20 °C, 2000× g, 10 min). After removal of the supernatant, the cell pellet was re-suspended in 1 mL PBS and centrifuged again and the supernatant discarded. The cell pellet was re-suspended in 1 mL of PBS with 15 mM glucose (PBS-gluc), giving a final cell density of 5 × 10^8 LtP/mL. AcEP/Ac compounds were added (100 µM final concentration) to aliquots of 50 µL of this cell suspension in 1.5 mL Eppendorf tubes and incubated for 20 min at 25 °C. Then, DFO (100 μM final concentration), DTPA (25 μM final concentration), and detection agent CMH (400 µM final concentration) were added to the aliquots before measurement. Samples containing only buffer (PBS-gluc) or only LtP (in PBS-gluc) were used as negative controls, while samples containing 20 μM AA were used as positive control. An aliquot of 17 µL suspension was aspirated into a PTFE tube (ø 0.7 mm). The tube was folded into a quartz tube (ø 4 mm outer diameter) and then transferred to the MD5 resonator of the EPR spectrometer. The measurement was started using following parameters: microwave frequency 9.682 GHz; microwave power 20 mW, modulation frequency 100 kHz; modulation amplitude 1 G; time constant 0.82 s; center field 3448 G; sweep width 100 G; scan time 84 s; attenuation 70 dB; separate scans 5. Based on a calibration curve with carboxy proxyl (CP^●) changes of the peak-to-peak intensity of CM^● spectra were converted to CMH oxidation rates (superoxide radical generation).

`c1ccc2cc3ccccc3cc2c1` [Ac, anthracene]: the IC50 in assay [1] was > 200 µM; in assay [2], > 100 µM; in the assay with J774 macrophages, > 200 µM.

Take `O=C1c2ccccc2C(=O)c2ccccc21` [anthraquinone, reference compound]: the IC50 in assay [2] was > 100 µM.

On to `CCCCCC[C@H]1C(=O)O[C@H](C)[C@H](NC(=O)c2cccc(NC=O)c2O)C(=O)O[C@@H](C)[C@@H]1OC(=O)CC(C)C` [antimycin A, reference compound], for which the “Increase of superoxide radical formation in LtP” value with LtP is listed as “more than 150%”.
